Among the data in ChEMBL document CHEMBL1629464, “Aldehyde oxidase: an enzyme of emerging importance in drug discovery” (J Med Chem, 2010) are IC50 values, retold here.

The assay addresses T1, Aldehyde oxidase 1 (Oryctolagus cuniculus, UniProt P80456).
T1 sequence (P80456 whole entry): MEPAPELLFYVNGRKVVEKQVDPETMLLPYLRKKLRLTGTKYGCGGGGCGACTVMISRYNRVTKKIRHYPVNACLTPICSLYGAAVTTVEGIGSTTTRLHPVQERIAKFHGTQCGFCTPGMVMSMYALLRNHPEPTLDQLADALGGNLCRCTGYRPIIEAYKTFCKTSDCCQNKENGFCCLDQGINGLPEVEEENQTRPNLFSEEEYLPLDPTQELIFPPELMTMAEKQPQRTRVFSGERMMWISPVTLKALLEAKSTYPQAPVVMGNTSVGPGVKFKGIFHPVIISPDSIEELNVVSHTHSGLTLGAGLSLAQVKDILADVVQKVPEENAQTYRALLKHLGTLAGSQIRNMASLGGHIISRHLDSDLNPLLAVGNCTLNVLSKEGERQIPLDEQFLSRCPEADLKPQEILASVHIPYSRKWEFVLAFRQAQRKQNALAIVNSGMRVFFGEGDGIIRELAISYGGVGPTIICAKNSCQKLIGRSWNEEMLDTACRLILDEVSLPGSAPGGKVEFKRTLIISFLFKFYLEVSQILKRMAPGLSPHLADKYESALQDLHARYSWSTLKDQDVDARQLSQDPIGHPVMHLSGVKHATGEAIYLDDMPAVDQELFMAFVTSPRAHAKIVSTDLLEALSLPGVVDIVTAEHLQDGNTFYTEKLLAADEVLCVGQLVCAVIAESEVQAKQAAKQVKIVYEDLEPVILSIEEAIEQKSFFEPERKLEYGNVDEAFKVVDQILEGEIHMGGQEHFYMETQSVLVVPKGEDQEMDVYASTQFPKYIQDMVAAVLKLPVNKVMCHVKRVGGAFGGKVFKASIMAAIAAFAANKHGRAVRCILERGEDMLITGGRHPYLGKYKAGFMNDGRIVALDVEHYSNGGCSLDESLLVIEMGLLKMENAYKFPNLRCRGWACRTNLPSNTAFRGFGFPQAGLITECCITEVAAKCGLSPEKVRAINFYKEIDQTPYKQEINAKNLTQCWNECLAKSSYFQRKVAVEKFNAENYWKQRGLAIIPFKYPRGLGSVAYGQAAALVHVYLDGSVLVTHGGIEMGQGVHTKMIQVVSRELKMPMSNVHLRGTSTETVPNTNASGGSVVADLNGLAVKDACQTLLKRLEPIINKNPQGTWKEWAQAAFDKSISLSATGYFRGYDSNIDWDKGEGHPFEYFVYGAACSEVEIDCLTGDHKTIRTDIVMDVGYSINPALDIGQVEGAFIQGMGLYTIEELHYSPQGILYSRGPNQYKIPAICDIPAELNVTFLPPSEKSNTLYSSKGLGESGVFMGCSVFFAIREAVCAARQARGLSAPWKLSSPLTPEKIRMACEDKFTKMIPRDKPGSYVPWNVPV
The experiment in a line: Inhibition of rabbit aldehyde oxidase.

What is called IC50 is the concentration at which inhibition is half-maximal. Turning to `C[C@]12CC[C@@H]3c4ccc(O)cc4CC[C@H]3[C@@H]1CC[C@@H]2O` [ESTRADIOL], it took 40 µM to reach half-maximal inhibition (IC50).
